US8410302B2, “Methoxyimino compounds and fungicide composition comprising same” (Kyung Nong Corporation, priority 2007, dated 2013)
Like-named read-outs stand apart in the source and are kept apart here.

Assays:
[1] = test system: Pyricularia oryzae Carvara KA301; experiment: whole plant or invertebrate; format: in vivo; settings: for pest or weed control at 2 ppm / pest or weed control at 10 ppm / pest or weed control at 50 ppm / pest or weed control at 100 ppm: Pyricularia oryzae, read-out: RCB control value (C.V.); for RCB control value (C.V.): rice blast
Puccinia recondita = experiment: Fungicidal activity against wheat leaf rust (WLR) disease, control value; format: in vivo; settings: for pest or weed control at 2 ppm / pest or weed control at 10 ppm / pest or weed control at 50 ppm / pest or weed control at 100 ppm: read-out: WLR control value (C.V.)
Erysiphae graminis = experiment: Fungicidal activity against barley powdery mildew (BPM) disease, control value; format: in vivo; settings: for pest or weed control at 2 ppm / pest or weed control at 10 ppm / pest or weed control at 50 ppm / pest or weed control at 100 ppm: 168 h, read-out: BPM control value (C.V.)
Rhizoctonia solani AG-1 = experiment: Fungicidal activity against rice sheath blight (RSB) disease, control value; settings: for pest or weed control at 2 ppm / pest or weed control at 10 ppm / pest or weed control at 50 ppm / pest or weed control at 100 ppm: Rhizoctonia solani, AG1, in Oryza sativa, read-out: RSB control value (C.V.); for RSB control value (C.V.): rice sheath blight
Phytophthora infestans = experiment: whole plant or invertebrate; format: in vivo; settings: for pest or weed control at 2 ppm / pest or weed control at 10 ppm / pest or weed control at 50 ppm / pest or weed control at 100 ppm: Phytophthora infestans, in Solanum lycopersicum, read-out: TLB control value (C.V.); for TLB control value (C.V.): tomato late blight
Botrytis cinerae = experiment: Fungicidal activity against cucumber gray mold rot (CGM) disease, control value; format: in vivo; settings: for pest or weed control at 100 ppm / CGM control value (C.V.): 100 ppm
[2] = Botrytis, read-out: CGM control value (C.V.)
[3] = Hordeum vulgare, 2 ppm, barley powdery mildew
[4] = Hordeum vulgare, 10 ppm, barley powdery mildew
[5] = Hordeum vulgare, 50 ppm, barley powdery mildew
[6] = Hordeum vulgare, 100 ppm, barley powdery mildew
[7] = Botrytis, cucumber gray mold rot, read-out: CGM control value (C.V.)

| Structure (SMILES) | pest or weed control at 2 ppm [1] [%] | pest or weed control at 10 ppm [1] [%] | pest or weed control at 50 ppm [1] [%] | pest or weed control at 100 ppm [1] [%] | pest or weed control at 2 ppm (Puccinia recondita; Puccinia recondita, 2 ppm) [%] | pest or weed control at 2 ppm (Rhizoctonia solani AG-1) [%] | pest or weed control at 10 ppm (Rhizoctonia solani AG-1) [%] | pest or weed control at 50 ppm (Rhizoctonia solani AG-1) [%] | pest or weed control at 100 ppm (Rhizoctonia solani AG-1) [%] | pest or weed control at 2 ppm (Phytophthora infestans) [%] | pest or weed control at 10 ppm (Phytophthora infestans) [%] | pest or weed control at 50 ppm (Phytophthora infestans) [%] | pest or weed control at 100 ppm (Phytophthora infestans) [%] | RCB control value (C.V.) ([1]; 50 ppm) [%] | RCB control value (C.V.) ([1]; 100 ppm) [%] | WLR control value (C.V.) (Puccinia recondita; 100 ppm, wheat leaf rust) [%] | BPM control value (C.V.) (Erysiphae graminis; 100 ppm, barley powdery mildew) [%] | RSB control value (C.V.) (Rhizoctonia solani AG-1; 100 ppm) [%] | TLB control value (C.V.) (Phytophthora infestans; 100 ppm) [%] | CGM control value (C.V.) (Botrytis cinerae; cucumber gray mold rot) [%] | further results |
| --- | --- | --- | --- | --- | --- | --- | --- | --- | --- | --- | --- | --- | --- | --- | --- | --- | --- | --- | --- | --- | --- |
| CO/N=C(/C(=O)OC)c1ccccc1COc1cc(C=C(Br)Br)ccc1OC [Example 71, methyl-(E)-2-(2-((5-(2,2-dibromovinyl)-2-methoxyphenoxy)methyl)phenyl)-2-methoxyiminoacetate] | 30 | 90 | 100 | 100 | 95 | 65 | 98 | 100 | 100 | 70 | 90 | 98 | 100 |  |  |  |  |  |  |  | pest or weed control at 10 ppm (Puccinia recondita; Puccinia recondita, 10 ppm): 100%; pest or weed control at 50 ppm (Puccinia recondita; Puccinia recondita, 50 ppm): 100%; pest or weed control at 100 ppm (Puccinia recondita; Puccinia recondita, 100 ppm): 100%; pest or weed control at 2 ppm (Erysiphae graminis; 2 ppm): 95%; pest or weed control at 10 ppm (Erysiphae graminis; 10 ppm): 100%; pest or weed control at 50 ppm (Erysiphae graminis; 50 ppm): 100%; pest or weed control at 100 ppm (Erysiphae graminis; 100 ppm): 100%; pest or weed control at 100 ppm (Botrytis cinerae; [2]): 65% |
| CO/N=C(/C(=O)OC)c1ccccc1COc1ccc(C=C(Cl)Cl)cc1Cl [Example 39, methyl-(E)-2-(2-((2-chloro-4-(2,2-dichlorovinyl)phenoxy)methyl)phenyl)-2-methoxyiminoacetate] | 100 | 100 | 100 | 100 |  | 100 | 100 | 100 | 100 | 100 | 100 | 100 | 100 |  |  |  |  |  |  |  | pest or weed control at 2 ppm (Puccinia recondita; 2 ppm, wheat leaf rust): 100%; pest or weed control at 10 ppm (Puccinia recondita; 10 ppm, wheat leaf rust): 100%; pest or weed control at 50 ppm (Puccinia recondita; 50 ppm, wheat leaf rust): 100%; pest or weed control at 100 ppm (Puccinia recondita; 100 ppm, wheat leaf rust): 100%; pest or weed control at 2 ppm (Erysiphae graminis; [3]): 100%; pest or weed control at 10 ppm (Erysiphae graminis; [4]): 100%; pest or weed control at 50 ppm (Erysiphae graminis; [5]): 100%; pest or weed control at 100 ppm (Erysiphae graminis; [6]): 100%; pest or weed control at 100 ppm (Botrytis cinerae; [7]): 75% |
| CO/N=C(/C(=O)OC)c1ccccc1COc1cccc(C=C(Br)Br)c1Cl [Example 67, methyl-(E)-2-(2-((3-(2,2-dibromovinyl)-2-chlorophenoxy)methyl)phenyl)-2-methoxyiminoacetate] | 100 | 100 | 100 | 100 | 100 | 100 | 100 | 100 | 100 | 99 | 100 | 100 | 100 |  |  |  |  |  |  |  | pest or weed control at 10 ppm (Puccinia recondita; Puccinia recondita, 10 ppm): 100%; pest or weed control at 50 ppm (Puccinia recondita; Puccinia recondita, 50 ppm): 100%; pest or weed control at 100 ppm (Puccinia recondita; Puccinia recondita, 100 ppm): 100%; pest or weed control at 2 ppm (Erysiphae graminis; 2 ppm): 100%; pest or weed control at 10 ppm (Erysiphae graminis; 10 ppm): 100%; pest or weed control at 50 ppm (Erysiphae graminis; 50 ppm): 100%; pest or weed control at 100 ppm (Erysiphae graminis; 100 ppm): 100%; pest or weed control at 50 ppm (Botrytis cinerae; Botrytis, 50 ppm, read-out: CGM control value (C.V.)): 40%; pest or weed control at 100 ppm (Botrytis cinerae; [2]): 85% |
| CNC(=O)/C(=N/OC)c1ccccc1COc1ccc(C=C(Br)Br)cc1Br [Example 78, (E)-2-(2-((2-bromo-4-(2,2-dibromovinyl)phenoxy)methyl)phenyl)-2-methoxyimino-N-methylacetamide] | 40 | 90 | 98 | 100 | 95 | 65 | 98 | 100 | 100 | 70 | 90 | 98 | 100 |  |  |  |  |  |  |  | pest or weed control at 10 ppm (Puccinia recondita; Puccinia recondita, 10 ppm): 98%; pest or weed control at 50 ppm (Puccinia recondita; Puccinia recondita, 50 ppm): 100%; pest or weed control at 100 ppm (Puccinia recondita; Puccinia recondita, 100 ppm): 100%; pest or weed control at 2 ppm (Erysiphae graminis; 2 ppm): 90%; pest or weed control at 10 ppm (Erysiphae graminis; 10 ppm): 100%; pest or weed control at 50 ppm (Erysiphae graminis; 50 ppm): 100%; pest or weed control at 100 ppm (Erysiphae graminis; 100 ppm): 100%; pest or weed control at 100 ppm (Botrytis cinerae; [2]): 40% |
| CO/N=C(/C(=O)OC)c1ccccc1CON=C(C)c1cccc(C=C(F)Cl)c1 [Example 31, methyl-(E)-2-[[[[[2-[3-(2-chloro-2-fluorovinyl)phenyl](1-methyl)methylidene]amino]oxy]methyl]phenyl]-2-methoxyiminoacetate] |  |  |  |  |  |  |  |  |  |  |  |  |  | 70 | 95 | 100 | 90 | 30 | 60 | 43 | WLR control value (C.V.) (Puccinia recondita; 10 ppm, wheat leaf rust): 40%; WLR control value (C.V.) (Puccinia recondita; 50 ppm, wheat leaf rust): 90%; BPM control value (C.V.) (Erysiphae graminis; 50 ppm, barley powdery mildew): 60% |
| CNC(=O)/C(=N/OC)c1ccccc1CON=C(C)c1cccc(C=C(F)Cl)c1 [Example 32, (E)-2-[[[[[2-[3-(2-chloro-2-fluorovinyl)phenyl](1-methyl)methylidene]amino]oxy]methyl]phenyl]-2-methoxyimino-N-methylacetamide] |  |  |  |  |  |  |  |  |  |  |  |  |  | 90 | 97 | 82 | 80 | 65 | 93 | 34 | TLB control value (C.V.) (Phytophthora infestans; 50 ppm): 55% |
| CNC(=O)/C(=N/OC)c1ccccc1COc1cccc(C=C(F)Cl)c1 [Example 12, (2E)-2-(2-((3-(2-chloro-2-difluorovinyl)phenoxy)methyl)phenyl)-2-methoxyimino-N-methylacetamide] |  |  |  |  |  |  |  |  |  |  |  |  |  | 90 | 97 | 82 | 80 | 15 | 93 | 40 | TLB control value (C.V.) (Phytophthora infestans; 50 ppm): 55% |
| CNC(=O)/C(=N/OC)c1ccccc1CON=C(C)c1cccc(C=C(F)F)c1 [Example 28, (E)-2-[[[[[2-[3-(2,2-difluorovinyl)phenyl](1-methyl)methylidene]amino]oxy]methyl]phenyl]-2-methoxyimino-N-methylacetamide] |  |  |  |  |  |  |  |  |  |  |  |  |  | 70 | 95 | 100 | 90 | 35 | 60 | 50 | WLR control value (C.V.) (Puccinia recondita; 2 ppm, wheat leaf rust): 40%; WLR control value (C.V.) (Puccinia recondita; 10 ppm, wheat leaf rust): 90%; WLR control value (C.V.) (Puccinia recondita; 50 ppm, wheat leaf rust): 100%; BPM control value (C.V.) (Erysiphae graminis; 50 ppm, barley powdery mildew): 60% |
| CO/N=C(/C(=O)OC)c1ccccc1CON=C(C)c1cccc(C=C(Br)Br)c1 [Example 23, methyl-(E)-2-[[[[[2-[3-(2,2-dibromovinyl)phenyl](1-methyl)methylidene]amino]oxy]methyl]phenyl]-2-methoxyiminoacetate] |  |  |  |  |  |  |  |  |  |  |  |  |  | 100 | 100 | 80 | 95 | 100 | 93 | 34 | RCB control value (C.V.) ([1]; 2 ppm): 90%; RCB control value (C.V.) ([1]; 10 ppm): 97%; BPM control value (C.V.) (Erysiphae graminis; 2 ppm, barley powdery mildew): 20%; BPM control value (C.V.) (Erysiphae graminis; 10 ppm, barley powdery mildew): 50%; BPM control value (C.V.) (Erysiphae graminis; 50 ppm, barley powdery mildew): 80%; RSB control value (C.V.) (Rhizoctonia solani AG-1; 2 ppm): 98%; RSB control value (C.V.) (Rhizoctonia solani AG-1; 10 ppm): 100%; RSB control value (C.V.) (Rhizoctonia solani AG-1; 50 ppm): 100%; TLB control value (C.V.) (Phytophthora infestans; 50 ppm): 55% |
| CNC(=O)/C(=N/OC)c1ccccc1COc1ccc(C=C(Cl)Cl)cc1Cl [Example 40, (E)-2-(2-((2-chloro-4-(2,2-dichlorovinyl)phenoxy)methyl)phenyl)-2-methoxyimino-N-methylacetamide] | 100 | 100 | 100 | 100 |  | 100 | 100 | 100 | 100 |  |  |  | 30 |  |  |  |  |  |  |  | pest or weed control at 2 ppm (Puccinia recondita; 2 ppm, wheat leaf rust): 100%; pest or weed control at 10 ppm (Puccinia recondita; 10 ppm, wheat leaf rust): 100%; pest or weed control at 50 ppm (Puccinia recondita; 50 ppm, wheat leaf rust): 100%; pest or weed control at 100 ppm (Puccinia recondita; 100 ppm, wheat leaf rust): 100%; pest or weed control at 2 ppm (Erysiphae graminis; [3]): 100%; pest or weed control at 10 ppm (Erysiphae graminis; [4]): 100%; pest or weed control at 50 ppm (Erysiphae graminis; [5]): 100%; pest or weed control at 100 ppm (Erysiphae graminis; [6]): 100%; pest or weed control at 100 ppm (Botrytis cinerae; [7]): 10% |
